Laboratory results: patent US10077272B2, “Heteroaromatic compounds and their use as dopamine D1 ligands” (PFIZER INC., priority 2014, dated 2018)
Counter-ions that a name gives are not always drawn.

Molecular target: Human D1 Receptor (Homo sapiens (Human), UniProt P21728)
Assay: Human D1 Receptor Binding Assay ([3H]-SCH23390 competition)
Settings: competition with 0.5 nM [3H]-SCH23390, over-expressing LTK human cell lines, 30 min at 37° C.; values marked ^a are from a single determination; read-out: Human D1 Receptor Binding, Ki (nM); Geometric mean of 2-4 determinations (unless otherwise indicated)
Method: D1 binding assays were performed using over-expressing LTK human cell lines. […] These ligand and tissue concentrations were used in time course studies to determine linearity and equilibrium conditions for binding. […] The pellet was resuspended in assay buffer [50 mM Tris (pH 7.4@ RT) containing 4 mM MgSO4 and 0.5 mM EDTA]. […] Non-specific binding was determined by radioligand binding in the presence of a saturating concentration of (+)-Butaclamol (10 μM), a D1 antagonist. After a 30 minute incubation period at 37° C., assay samples were rapidly filtered through Unifilter-96 GF/B PEI-coated filter plates and rinsed with 50 mM Tris buffer (pH 7.4 at 4° C.). […] Ki values were calculated according to the Cheng-Prusoff equation: […]

Human D1 Receptor, sequence (P21728 whole entry): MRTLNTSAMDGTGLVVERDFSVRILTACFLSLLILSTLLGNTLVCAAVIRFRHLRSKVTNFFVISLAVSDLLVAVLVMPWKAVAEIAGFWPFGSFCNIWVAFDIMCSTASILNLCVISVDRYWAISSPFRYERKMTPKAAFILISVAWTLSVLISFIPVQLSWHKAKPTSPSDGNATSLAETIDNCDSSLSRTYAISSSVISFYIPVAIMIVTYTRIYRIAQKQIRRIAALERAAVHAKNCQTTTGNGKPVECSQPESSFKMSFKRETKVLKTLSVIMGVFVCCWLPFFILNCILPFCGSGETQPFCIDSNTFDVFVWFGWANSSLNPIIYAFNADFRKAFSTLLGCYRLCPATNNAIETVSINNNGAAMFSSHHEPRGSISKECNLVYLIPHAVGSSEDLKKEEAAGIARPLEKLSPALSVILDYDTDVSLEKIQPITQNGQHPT

Compound | Ki [nM]
Cc1cc(Oc2ncnc3occc23)ccc1-c1c(C)n[nH]c(=O)c1C [Example 6, 5-[4-(furo[2,3-d]pyrimidin-4-yloxy)-2-methylphenyl]-4,6-dimethylpyridazin-3(2H)-one] | 44.7
Cc1cc(Oc2ncnc3occc23)ccc1-c1c(C)ncc(=O)n1C [Example 3, 6-[4-(furo[2,3-d]pyrimidin-4-yloxy)-2-methylphenyl]-1,5-dimethylpyrazin-2(1H)-one] | 196
Cc1cc(Oc2ncnc3occc23)ccc1-c1cn[nH]c(=O)c1C [Example 14, 5-[4-(furo[2,3-d]pyrimidin-4-yloxy)-2-methylphenyl]-4-methylpyridazin-3(2H)-one] | 372
Cc1cc(Oc2ncnc3occc23)ccc1-c1c(C)n[nH]c(=O)c1C (single isomer, unassigned) [Example 7, (+)-5-[4-(furo[2,3-d]pyrimidin-4-yloxy)-2-methylphenyl]-4,6-dimethylpyridazin-3(2H)-one] | 30.7
Cc1c(-c2ccc(Oc3nccc4onc(C)c34)cc2)n(C)c(=O)[nH]c1=O [Example 15, 1,5-dimethyl-6-{4-[(3-methyl[1,2]oxazolo[4,5-c]pyridin-4-yl)oxy]phenyl}pyrimidine-2,4(1H,3H)-dione] | 280
Cc1cc(Oc2ncnc3occc23)ccc1-c1c(C)ncc(=O)n1C (single isomer, unassigned) [Example 5, (+)-6-[4-(furo[2,3-d]pyrimidin-4-yloxy)-2-methylphenyl]-1,5-dimethylpyrazin-2(1H)-one] | 400
Cc1cc(Oc2ncnc3occc23)ccc1-c1c(C)ncc(=O)n1C (single isomer, unassigned) [Example 4, (−)-6-[4-(furo[2,3-d]pyrimidin-4-yloxy)-2-methylphenyl]-1,5-dimethylpyrazin-2(1H)-one] | 127
Cc1n[nH]c(=O)c(C)c1-c1ccc(Oc2ncnc3occc23)cc1 [Example 13, 5-[4-(furo[2,3-d]pyrimidin-4-yloxy)phenyl]-4,6-dimethylpyridazin-3(2H)-one] | 70.3
Cc1cc(Oc2ncnc3occc23)ccc1-c1c(C)n[nH]c(=O)c1C (single isomer, unassigned) [Example 8, (−)-5-[4-(furo[2,3-d]pyrimidin-4-yloxy)-2-methylphenyl]-4,6-dimethylpyridazin-3(2H)-one] | 40.2
Cc1cc(Oc2nccc3onc(C)c23)ccc1-c1c(C)n[nH]c(=O)c1C [Example 16, 4,6-dimethyl-5-{2-methyl-4-[(3-methyl[1,2]oxazolo[4,5-c]pyridin-4-yl)oxy]phenyl}pyridazin-3(2H)-one, trifluoroacetic acid salt] | 326
Cc1c(-c2ccc(Oc3ncnc4occc34)cc2)n(C)c(=O)[nH]c1=O [Example 9, 6-[4-(furo[2,3-d]pyrimidin-4-yloxy)phenyl]-1,5-dimethylpyrimidine-2,4(1H,3H)-dione] | 142
Cc1cc(Oc2nccc3[nH]cnc23)ccc1-c1c(C)ncnc1C#N [Example 12, 5-[4-(1H-imidazo[4,5-c]pyridin-4-yloxy)-2-methylphenyl]-6-methylpyrimidine-4-carbonitrile] | 367

Results, then the compound that gave them:

Ki [nM] | Compound
274 | CCc1c(-c2ccc(Oc3ncnc4occc34)cc2)n(C)c(=O)[nH]c1=O [Example 18, 5-ethyl-6-[4-(furo[2,3-d]pyrimidin-4-yloxy)phenyl]-1-methylpyrimidine-2,4(1H,3H)-dione]
142 | CCc1c(-c2ccc(Oc3ncnc4occc34)cc2)n(C2CC2)c(=O)[nH]c1=O [Example 22, 1-cyclopropyl-5-ethyl-6-[4-(furo[2,3-d]pyrimidin-4-yloxy)phenyl]pyrimidine-2,4(1H,3H)-dione]
122 | Cc1c(-c2ccc(Oc3ncnc4occc34)cc2)n(C2CC2)c(=O)[nH]c1=O [Example 21, 1-cyclopropyl-6-[4-(furo[2,3-d]pyrimidin-4-yloxy)phenyl]-5-methylpyrimidine-2,4(1H,3H)-dione]
900 | COCCn1c(-c2ccc(Oc3ncnc4occc34)cc2)c(C)c(=O)[nH]c1=O [Example 19, 6-[4-(furo[2,3-d]pyrimidin-4-yloxy)phenyl]-1-(2-methoxyethyl)-5-methylpyrimidine-2,4(1H,3H)-dione]
309 | CCc1c(-c2ccc(Oc3ncnc4occc34)cc2)n(CC)c(=O)[nH]c1=O [Example 23, 1,5-diethyl-6-[4-(furo[2,3-d]pyrimidin-4-yloxy)phenyl]pyrimidine-2,4(1H,3H)-dione]
179 | CCn1c(-c2ccc(Oc3ncnc4occc34)cc2)c(C)c(=O)[nH]c1=O [Example 20, 1-ethyl-6-[4-(furo[2,3-d]pyrimidin-4-yloxy)phenyl]-5-methylpyrimidine-2,4(1H,3H)-dione]
1730 | Cc1cc(Oc2nccc3onc(C)c23)ccc1-c1c(C)ncc(=O)n1C [Example 17, 1,5-dimethyl-6-{2-methyl-4-[(3-methyl[1,2]oxazolo[4,5-c]pyridin-4-yl)oxy]phenyl}pyrazin-2(1H)-one, trifluoroacetic acid salt]
